From patent US11440870B2, “Cannabidiolic acid esters compositions and uses thereof” (Yissum Research Development Company of the Hebrew …, priority 2017, dated 2022)

Test system: locomotor activity of rats
Experiment: Locomotor activity test after the anticipatory nausea test
Assay type: in vivo, male Sprague-Dawley rats
Conditions: 0.01 or 0.1 μg·kg−1 i.p.; 15 min test; ANOVA F(6, 39)=0.9, P>0.05
Protocol: For in vivo experiment 2, contextually elicited conditioned gaping (a model of anticipatory nausea) was measured using a distinctive conditioning chamber made of opaque black Plexiglass (22.5×26×20 cm) with an opaque lid that sat on a table with a clear glass top. A mirror beneath the chamber at a 45° angle facilitated viewing of the ventral surface of the rat to observe orofacial responses. The conditioning chamber was in a dark room next to a 25 W light source. A video camera that was fire-wired into a computer was focused on the mirror to record each rat's orofacial reactions during the 5 min test trial. The video tapes were later scored using ‘The Observer’ software. […]
To compare the potential of HU-580 and CBDA to reduce anticipatory nausea, the contextually elicited conditioned gaping paradigm was used (e.g. Limebeer et al., 2010; Rock et al., 2014). […] Pretreatments were injected 45 min before the rats were given an saline injection (20 mL·kg^−1 i.p.) and individually placed in the conditioning (contextual) chamber for 5 min, and orofacial responses were video recorded. […] The video tapes from the test trial were scored by an observer blind to the experimental conditions using ‘The Observer’ for the behaviors of gaping (large openings of the mouth and jaw, with lower incisors exposed). […]

SMILES | Distance moved in locomotor activity test
C=C(C)[C@@H]1CCC(C)=C[C@H]1c1c(O)cc(CCCCC)c(C(=O)O)c1O [CBDA, Cannabidiolic acid] | no significant effect on distance moved
C=C(C)[C@@H]1CCC(C)=C[C@H]1c1c(O)cc(CCCCC)c(C(=O)OC)c1O [HU-580, Cannabidiolic Acid Methyl Ester] | no significant effect on distance moved
